Data reported in ChEMBL document CHEMBL5446079, “Affinity Biochemical Literature for EUbOPEN Chemogenomic Library” (2024).
pIC50, pKd: −log10 of the molar value.

Columns and labels:
[1] = target: Protein-arginine deiminase type-4 (Homo sapiens, UniProt Q9UM07)
SRSF protein kinase 1 = SRSF protein kinase 1 (Homo sapiens, UniProt Q96SB4)
SRSF protein kinase 2 = SRSF protein kinase 2 (Homo sapiens, UniProt P78362)
[2] = target: T1, Bromodomain-containing protein 9 (Homo sapiens, UniProt Q9H8M2)
T1 sequence (Q9H8M2 whole entry): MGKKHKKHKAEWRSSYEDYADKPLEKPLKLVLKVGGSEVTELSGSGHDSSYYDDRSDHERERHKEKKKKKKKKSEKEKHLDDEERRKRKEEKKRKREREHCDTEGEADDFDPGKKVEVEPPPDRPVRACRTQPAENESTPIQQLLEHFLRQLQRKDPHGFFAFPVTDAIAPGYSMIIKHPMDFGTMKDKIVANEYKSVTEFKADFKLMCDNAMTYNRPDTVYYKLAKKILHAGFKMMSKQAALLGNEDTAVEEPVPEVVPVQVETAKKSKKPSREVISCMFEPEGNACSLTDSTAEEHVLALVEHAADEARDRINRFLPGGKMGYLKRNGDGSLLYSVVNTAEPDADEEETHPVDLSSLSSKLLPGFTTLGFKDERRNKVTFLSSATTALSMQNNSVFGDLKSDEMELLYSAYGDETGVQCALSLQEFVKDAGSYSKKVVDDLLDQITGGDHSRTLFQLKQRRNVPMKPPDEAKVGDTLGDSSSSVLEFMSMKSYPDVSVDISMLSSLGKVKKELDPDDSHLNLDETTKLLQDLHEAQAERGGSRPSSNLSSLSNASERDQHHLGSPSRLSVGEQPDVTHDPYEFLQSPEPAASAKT

CDK8/Cyclin C = CDK8/Cyclin C (Homo sapiens, UniProt P49336); format: protein-complex assay
[3] = target: Nucleosome-remodeling factor subunit BPTF (Homo sapiens, UniProt Q12830)
[4] = target: Chromatin remodeling regulator CECR2 (Homo sapiens, UniProt Q9BXF3)
[5] = target: T2, Histone-lysine N-methyltransferase NSD3 (Homo sapiens, UniProt Q9BZ95)
T2 sequence (Q9BZ95 whole entry): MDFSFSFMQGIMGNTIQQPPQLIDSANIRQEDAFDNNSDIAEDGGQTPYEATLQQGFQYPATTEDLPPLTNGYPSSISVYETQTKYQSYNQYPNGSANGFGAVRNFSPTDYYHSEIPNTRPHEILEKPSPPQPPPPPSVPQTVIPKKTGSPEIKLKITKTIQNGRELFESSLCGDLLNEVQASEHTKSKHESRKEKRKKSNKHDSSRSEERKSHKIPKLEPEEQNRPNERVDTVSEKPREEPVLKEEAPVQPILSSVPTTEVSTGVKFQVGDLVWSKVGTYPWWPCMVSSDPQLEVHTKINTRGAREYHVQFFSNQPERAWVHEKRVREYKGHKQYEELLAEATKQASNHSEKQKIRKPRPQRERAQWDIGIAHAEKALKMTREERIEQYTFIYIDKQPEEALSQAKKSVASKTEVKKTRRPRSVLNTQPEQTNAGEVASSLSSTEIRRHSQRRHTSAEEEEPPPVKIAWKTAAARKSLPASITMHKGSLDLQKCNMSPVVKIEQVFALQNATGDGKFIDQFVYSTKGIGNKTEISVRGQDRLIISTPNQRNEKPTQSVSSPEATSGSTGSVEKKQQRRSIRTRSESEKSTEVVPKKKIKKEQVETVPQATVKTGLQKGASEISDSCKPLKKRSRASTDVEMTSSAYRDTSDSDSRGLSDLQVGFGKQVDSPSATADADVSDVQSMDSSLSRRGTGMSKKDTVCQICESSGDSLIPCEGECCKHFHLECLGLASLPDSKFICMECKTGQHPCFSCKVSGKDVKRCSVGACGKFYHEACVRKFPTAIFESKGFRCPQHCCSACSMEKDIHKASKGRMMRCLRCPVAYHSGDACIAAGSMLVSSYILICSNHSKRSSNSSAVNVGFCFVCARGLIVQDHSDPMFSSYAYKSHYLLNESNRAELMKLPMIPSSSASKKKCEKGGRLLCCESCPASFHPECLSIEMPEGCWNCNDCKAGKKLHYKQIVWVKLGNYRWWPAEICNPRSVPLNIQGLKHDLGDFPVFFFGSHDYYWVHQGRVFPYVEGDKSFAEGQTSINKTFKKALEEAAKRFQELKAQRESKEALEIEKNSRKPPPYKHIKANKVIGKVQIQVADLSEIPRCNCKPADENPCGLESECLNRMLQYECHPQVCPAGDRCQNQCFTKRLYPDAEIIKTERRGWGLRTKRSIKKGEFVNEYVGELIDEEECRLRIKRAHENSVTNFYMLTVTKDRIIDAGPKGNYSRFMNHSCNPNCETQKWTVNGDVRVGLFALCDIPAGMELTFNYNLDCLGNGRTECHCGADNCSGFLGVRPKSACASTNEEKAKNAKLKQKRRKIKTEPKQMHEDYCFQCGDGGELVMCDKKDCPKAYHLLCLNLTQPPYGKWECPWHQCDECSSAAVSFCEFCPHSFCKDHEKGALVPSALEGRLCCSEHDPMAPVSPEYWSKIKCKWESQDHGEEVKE

[6] = target: Dual specificity protein kinase CLK2 (Homo sapiens, UniProt P49760)
[7] = target: Dual specificity protein kinase CLK4 (Homo sapiens, UniProt Q9HAZ1)
[8] = target: Dual specificity protein kinase CLK1 (Homo sapiens, UniProt P49759)
Peregrin = target: T3, Peregrin (Homo sapiens, UniProt P55201)
T3 sequence (P55201 whole entry): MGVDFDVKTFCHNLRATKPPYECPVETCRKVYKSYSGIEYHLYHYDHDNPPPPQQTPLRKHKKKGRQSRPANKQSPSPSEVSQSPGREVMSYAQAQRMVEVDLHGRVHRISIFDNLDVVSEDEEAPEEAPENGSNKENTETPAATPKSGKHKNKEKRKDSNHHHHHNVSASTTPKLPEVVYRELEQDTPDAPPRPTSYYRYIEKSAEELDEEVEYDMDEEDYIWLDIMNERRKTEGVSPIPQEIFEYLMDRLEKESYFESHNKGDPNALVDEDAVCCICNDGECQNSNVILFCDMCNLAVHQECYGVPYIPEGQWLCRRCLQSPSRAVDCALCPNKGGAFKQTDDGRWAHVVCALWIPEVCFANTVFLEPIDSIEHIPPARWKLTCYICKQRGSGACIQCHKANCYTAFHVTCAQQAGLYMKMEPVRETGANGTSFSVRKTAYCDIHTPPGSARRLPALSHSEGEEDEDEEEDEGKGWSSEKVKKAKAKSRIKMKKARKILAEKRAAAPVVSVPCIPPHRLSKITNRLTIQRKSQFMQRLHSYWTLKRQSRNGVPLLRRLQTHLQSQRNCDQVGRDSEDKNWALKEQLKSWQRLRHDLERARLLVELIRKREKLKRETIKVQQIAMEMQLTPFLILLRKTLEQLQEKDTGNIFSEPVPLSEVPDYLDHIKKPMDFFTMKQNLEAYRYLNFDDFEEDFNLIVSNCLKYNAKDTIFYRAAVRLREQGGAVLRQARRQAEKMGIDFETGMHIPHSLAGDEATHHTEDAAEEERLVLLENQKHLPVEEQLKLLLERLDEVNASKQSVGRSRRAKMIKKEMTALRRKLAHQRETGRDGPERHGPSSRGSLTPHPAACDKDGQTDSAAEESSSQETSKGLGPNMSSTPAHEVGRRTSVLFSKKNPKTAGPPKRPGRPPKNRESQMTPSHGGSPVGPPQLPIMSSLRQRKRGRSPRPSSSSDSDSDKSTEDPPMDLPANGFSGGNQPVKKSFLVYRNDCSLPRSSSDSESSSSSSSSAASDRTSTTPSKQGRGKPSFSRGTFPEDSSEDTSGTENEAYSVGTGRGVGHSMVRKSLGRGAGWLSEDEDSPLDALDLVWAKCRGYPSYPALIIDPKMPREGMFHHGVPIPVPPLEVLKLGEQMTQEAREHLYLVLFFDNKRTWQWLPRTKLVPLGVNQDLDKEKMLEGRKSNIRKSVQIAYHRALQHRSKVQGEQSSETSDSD

[9] = target: T4, Bromodomain-containing protein 1 (Homo sapiens, UniProt O95696)
T4 sequence (O95696 whole entry): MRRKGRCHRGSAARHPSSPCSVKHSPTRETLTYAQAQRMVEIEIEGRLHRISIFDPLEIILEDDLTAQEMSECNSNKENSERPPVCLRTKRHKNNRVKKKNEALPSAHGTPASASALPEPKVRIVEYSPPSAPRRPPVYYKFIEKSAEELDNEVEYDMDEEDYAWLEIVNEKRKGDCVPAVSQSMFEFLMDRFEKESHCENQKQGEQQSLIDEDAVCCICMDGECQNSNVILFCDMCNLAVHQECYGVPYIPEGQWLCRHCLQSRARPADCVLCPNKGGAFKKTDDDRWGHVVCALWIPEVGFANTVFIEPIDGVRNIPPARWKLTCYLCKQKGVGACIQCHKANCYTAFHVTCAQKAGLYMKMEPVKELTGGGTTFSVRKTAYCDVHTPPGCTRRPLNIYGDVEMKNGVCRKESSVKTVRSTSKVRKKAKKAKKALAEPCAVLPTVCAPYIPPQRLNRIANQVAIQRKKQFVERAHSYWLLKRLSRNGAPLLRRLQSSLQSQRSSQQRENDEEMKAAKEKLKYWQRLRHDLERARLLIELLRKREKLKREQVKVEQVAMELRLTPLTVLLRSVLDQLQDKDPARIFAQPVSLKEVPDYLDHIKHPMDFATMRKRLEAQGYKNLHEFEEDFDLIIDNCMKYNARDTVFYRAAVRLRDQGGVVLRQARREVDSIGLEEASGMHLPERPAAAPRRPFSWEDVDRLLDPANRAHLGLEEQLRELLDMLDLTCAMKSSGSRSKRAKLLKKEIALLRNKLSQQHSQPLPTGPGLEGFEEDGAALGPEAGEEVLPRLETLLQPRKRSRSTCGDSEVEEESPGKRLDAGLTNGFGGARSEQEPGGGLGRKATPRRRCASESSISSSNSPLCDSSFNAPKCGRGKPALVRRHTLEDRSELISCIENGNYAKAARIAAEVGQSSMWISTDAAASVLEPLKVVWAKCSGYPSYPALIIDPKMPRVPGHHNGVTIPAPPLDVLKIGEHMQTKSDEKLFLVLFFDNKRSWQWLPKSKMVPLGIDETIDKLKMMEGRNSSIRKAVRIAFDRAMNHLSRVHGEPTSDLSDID

[10] = target: T5, Bromodomain and PHD finger-containing protein 3 (Homo sapiens, UniProt Q9ULD4)
T5 sequence (Q9ULD4 whole entry): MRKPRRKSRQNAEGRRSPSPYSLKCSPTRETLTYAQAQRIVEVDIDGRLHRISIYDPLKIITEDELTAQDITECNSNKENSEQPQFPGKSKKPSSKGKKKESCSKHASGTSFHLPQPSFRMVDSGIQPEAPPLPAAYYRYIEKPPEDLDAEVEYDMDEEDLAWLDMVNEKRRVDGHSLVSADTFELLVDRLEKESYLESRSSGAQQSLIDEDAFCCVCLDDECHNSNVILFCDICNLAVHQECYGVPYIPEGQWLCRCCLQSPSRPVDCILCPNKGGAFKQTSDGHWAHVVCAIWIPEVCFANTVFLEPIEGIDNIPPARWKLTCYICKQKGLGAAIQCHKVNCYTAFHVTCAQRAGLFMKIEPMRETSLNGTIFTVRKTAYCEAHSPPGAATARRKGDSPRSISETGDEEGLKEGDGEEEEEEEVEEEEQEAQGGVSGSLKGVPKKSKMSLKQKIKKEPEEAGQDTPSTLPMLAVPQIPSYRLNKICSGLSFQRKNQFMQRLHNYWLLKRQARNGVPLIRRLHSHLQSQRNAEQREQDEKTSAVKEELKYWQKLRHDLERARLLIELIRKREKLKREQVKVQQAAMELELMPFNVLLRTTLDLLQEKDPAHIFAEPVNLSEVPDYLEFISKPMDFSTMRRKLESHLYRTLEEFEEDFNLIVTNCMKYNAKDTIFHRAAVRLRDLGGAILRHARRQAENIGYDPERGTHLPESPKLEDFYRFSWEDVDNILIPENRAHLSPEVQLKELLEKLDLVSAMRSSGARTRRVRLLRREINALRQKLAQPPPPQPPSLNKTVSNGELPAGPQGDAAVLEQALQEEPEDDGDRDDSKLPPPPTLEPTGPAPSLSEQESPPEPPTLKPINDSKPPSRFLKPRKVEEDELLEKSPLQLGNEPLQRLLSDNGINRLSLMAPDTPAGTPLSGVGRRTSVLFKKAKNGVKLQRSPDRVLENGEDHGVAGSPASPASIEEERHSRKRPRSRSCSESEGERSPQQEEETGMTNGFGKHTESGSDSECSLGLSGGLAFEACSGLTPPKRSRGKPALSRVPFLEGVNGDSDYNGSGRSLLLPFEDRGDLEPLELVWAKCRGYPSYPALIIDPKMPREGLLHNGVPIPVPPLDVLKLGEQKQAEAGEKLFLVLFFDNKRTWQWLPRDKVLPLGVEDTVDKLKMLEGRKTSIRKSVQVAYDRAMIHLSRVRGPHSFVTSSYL

Dual specificity protein kinase CLK2, sequence (P49760 whole entry): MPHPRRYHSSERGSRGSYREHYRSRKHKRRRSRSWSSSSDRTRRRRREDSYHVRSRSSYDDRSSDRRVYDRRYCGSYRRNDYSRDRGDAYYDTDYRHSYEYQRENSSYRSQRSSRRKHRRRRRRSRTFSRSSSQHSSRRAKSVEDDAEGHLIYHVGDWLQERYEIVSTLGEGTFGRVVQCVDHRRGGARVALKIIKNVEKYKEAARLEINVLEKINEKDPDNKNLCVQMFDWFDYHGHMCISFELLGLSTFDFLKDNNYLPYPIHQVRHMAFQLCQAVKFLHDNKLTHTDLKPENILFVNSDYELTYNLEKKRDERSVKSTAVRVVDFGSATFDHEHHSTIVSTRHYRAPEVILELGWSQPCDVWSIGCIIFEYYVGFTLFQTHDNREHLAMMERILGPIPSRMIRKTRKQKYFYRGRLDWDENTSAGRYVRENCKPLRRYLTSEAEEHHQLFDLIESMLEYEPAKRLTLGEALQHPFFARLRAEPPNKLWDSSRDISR
SRSF protein kinase 1, sequence (Q96SB4 whole entry): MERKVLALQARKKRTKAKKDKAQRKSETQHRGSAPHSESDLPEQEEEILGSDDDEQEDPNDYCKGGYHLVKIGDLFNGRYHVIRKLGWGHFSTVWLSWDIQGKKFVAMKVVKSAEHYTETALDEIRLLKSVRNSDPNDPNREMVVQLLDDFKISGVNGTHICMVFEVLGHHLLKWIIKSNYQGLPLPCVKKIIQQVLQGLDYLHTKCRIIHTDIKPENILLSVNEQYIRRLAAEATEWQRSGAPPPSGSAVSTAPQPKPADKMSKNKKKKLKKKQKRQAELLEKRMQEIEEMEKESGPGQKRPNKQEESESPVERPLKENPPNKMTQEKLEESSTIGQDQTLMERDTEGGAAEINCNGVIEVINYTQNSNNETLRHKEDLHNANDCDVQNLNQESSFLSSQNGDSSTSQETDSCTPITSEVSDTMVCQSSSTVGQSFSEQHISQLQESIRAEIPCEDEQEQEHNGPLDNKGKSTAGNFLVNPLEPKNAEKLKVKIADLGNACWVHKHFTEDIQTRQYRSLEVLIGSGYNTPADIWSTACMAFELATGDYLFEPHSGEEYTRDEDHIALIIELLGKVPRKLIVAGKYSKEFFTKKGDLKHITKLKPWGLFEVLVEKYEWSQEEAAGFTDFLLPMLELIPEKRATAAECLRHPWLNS
Dual specificity protein kinase CLK4, sequence (Q9HAZ1 whole entry): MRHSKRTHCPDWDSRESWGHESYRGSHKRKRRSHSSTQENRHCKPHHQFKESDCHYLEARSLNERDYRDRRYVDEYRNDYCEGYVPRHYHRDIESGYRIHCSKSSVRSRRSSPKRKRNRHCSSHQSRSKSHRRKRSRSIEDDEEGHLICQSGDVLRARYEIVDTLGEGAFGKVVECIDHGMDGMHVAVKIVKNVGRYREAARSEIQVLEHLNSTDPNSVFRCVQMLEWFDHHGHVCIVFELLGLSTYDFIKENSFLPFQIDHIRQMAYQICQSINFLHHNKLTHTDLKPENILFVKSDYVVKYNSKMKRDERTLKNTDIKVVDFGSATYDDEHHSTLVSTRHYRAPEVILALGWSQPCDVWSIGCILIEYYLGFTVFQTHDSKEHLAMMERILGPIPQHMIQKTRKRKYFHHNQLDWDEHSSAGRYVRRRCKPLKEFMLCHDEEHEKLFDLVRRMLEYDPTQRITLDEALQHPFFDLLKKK
SRSF protein kinase 2, sequence (P78362 whole entry): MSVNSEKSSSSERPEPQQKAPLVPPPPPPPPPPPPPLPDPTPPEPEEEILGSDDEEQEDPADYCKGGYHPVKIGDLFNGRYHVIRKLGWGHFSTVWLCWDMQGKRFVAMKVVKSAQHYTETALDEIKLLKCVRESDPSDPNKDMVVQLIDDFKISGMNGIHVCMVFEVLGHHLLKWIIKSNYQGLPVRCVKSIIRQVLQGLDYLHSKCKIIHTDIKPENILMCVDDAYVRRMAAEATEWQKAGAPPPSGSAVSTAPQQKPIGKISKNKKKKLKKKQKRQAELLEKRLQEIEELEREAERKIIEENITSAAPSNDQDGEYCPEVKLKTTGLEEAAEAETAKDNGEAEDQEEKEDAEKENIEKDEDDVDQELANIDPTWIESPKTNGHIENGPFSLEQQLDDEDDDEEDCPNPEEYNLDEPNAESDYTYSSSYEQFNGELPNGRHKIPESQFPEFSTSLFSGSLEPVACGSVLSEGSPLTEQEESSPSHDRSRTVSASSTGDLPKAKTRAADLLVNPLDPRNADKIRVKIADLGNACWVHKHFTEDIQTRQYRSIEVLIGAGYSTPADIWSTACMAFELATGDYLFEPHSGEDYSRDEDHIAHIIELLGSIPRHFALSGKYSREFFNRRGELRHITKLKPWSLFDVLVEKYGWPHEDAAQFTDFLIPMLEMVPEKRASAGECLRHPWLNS
Chromatin remodeling regulator CECR2, sequence (Q9BXF3 whole entry): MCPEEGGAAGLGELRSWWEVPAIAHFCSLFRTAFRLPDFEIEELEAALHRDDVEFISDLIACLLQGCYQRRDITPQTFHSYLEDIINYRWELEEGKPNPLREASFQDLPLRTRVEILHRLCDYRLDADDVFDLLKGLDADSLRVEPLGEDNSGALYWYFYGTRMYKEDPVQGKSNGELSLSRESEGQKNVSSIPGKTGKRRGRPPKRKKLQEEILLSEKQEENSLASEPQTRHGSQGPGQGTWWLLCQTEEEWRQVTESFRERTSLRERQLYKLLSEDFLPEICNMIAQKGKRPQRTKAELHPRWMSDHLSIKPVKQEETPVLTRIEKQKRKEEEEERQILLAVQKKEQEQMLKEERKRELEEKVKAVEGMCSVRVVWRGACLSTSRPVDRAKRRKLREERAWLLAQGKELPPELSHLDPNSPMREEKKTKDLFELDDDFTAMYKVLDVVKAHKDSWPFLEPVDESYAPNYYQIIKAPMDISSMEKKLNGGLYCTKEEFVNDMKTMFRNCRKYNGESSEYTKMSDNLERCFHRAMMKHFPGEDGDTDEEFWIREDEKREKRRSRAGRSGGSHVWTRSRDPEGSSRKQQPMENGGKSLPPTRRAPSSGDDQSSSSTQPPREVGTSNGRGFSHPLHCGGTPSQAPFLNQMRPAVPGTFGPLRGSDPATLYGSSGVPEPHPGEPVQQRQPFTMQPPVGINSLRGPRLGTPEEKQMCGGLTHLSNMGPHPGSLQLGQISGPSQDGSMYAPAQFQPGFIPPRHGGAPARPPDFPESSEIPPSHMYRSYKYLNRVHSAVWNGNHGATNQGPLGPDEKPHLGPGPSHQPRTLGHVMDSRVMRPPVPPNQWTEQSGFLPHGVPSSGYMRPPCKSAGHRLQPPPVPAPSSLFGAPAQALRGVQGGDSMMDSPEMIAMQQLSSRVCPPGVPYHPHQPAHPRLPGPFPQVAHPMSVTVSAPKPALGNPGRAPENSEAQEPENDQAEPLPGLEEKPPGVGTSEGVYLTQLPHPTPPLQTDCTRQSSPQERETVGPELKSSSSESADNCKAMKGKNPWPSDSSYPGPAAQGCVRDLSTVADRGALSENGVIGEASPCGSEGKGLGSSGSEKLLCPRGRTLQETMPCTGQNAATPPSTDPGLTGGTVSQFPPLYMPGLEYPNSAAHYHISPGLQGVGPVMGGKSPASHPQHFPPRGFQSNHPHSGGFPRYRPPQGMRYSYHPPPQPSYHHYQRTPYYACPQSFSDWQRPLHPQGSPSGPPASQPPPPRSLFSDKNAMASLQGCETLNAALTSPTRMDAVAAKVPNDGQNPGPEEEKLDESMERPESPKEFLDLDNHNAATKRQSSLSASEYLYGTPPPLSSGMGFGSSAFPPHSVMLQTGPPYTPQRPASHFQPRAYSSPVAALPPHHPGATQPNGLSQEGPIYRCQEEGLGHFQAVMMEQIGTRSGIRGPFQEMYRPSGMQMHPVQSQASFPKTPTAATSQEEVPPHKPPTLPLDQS
CDK8/Cyclin C, sequence (P49336 whole entry): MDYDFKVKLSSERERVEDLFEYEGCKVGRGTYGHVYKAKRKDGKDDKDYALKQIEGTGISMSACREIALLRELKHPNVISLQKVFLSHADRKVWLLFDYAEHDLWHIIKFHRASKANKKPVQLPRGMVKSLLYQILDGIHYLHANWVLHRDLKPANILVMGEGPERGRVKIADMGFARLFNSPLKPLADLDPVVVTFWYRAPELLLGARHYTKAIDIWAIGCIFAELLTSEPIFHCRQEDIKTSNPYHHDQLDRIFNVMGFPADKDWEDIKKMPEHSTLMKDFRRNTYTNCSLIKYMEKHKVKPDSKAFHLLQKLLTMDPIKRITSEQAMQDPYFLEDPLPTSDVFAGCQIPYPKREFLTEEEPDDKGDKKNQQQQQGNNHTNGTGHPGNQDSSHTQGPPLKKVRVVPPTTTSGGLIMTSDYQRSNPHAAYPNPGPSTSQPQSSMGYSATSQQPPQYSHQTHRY
CDK8/Cyclin C, sequence (P24863 whole entry, further chain): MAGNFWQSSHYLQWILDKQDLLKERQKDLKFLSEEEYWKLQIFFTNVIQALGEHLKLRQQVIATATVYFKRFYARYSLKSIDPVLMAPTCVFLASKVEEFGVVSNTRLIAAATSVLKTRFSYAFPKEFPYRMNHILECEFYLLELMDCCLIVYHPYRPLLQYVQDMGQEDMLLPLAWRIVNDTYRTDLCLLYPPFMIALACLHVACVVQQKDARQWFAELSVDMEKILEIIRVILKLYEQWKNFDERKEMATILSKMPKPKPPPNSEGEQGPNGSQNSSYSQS
Dual specificity protein kinase CLK1, sequence (P49759 whole entry): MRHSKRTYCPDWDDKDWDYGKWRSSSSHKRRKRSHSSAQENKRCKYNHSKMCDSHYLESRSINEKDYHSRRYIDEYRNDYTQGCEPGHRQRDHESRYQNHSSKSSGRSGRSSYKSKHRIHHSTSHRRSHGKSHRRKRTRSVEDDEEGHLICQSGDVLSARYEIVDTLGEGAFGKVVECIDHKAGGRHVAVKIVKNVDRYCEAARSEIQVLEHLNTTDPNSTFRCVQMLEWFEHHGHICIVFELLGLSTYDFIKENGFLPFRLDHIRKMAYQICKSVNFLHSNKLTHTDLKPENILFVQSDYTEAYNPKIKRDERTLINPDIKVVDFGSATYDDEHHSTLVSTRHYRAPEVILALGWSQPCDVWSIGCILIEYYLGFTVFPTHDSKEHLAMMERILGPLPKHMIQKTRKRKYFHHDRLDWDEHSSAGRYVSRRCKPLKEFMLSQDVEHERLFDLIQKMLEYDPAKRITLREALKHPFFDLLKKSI

Q: `CCn1c(-c2nc3cc(C(=O)N4CCCC(N)C4)ccc3n2C)cc2ccccc21` (centres undefined) was tested. Which pIC50 [1] did it give?
A: Its pIC50 is under 4.00.

Q: With `CN(c1ncccc1CNc1ccnc(-c2cc3cc(Cl)ccc3[nH]2)n1)S(C)(=O)=O` as the compound, how does the pIC50 (SRSF protein kinase 1) read?
A: Its pIC50 is under 5.00.

Q: And the pIC50 (SRSF protein kinase 2)?
A: The pIC50 was under 5.00.

Q: With `CC(=O)c1cc(-c2ccccc2OCC2CC2)c2ncccn12` as the compound, how does the pKd [2] read?
A: Its pKd is under 4.70.

Q: With `CN(C)C(=O)Cn1cc(-c2ccc(-c3nnc4ccccn34)cc2)cn1` as the compound, how does the pIC50 (CDK8/Cyclin C) read?
A: The pIC50 was 6.17.

Q: How did the pIC50 [3] turn out when `CN(C)CCCOc1ccc(-c2cc(NCCCn3cccn3)nc(S(C)(=O)=O)n2)cc1` was run?
A: The pIC50 was 4.52.

Q: What about the pIC50 [4] of the same compound?
A: Its pIC50 is 4.52.

Q: How did the pIC50 [5] turn out when `Cc1cc(CN)cc(C)c1-c1ncn(C)c1-c1cncn1C` was run?
A: Its pIC50 is 3.92.

Q: `COc1cc(Nc2nc(C)cc(-c3cnn4nc(OC)ccc34)n2)cc(C(F)(F)F)c1` was tested. Which pIC50 [6] did it give?
A: Its pIC50 is under 5.00.

Q: What about the pIC50 [7] of the same compound?
A: The pIC50 was under 5.00.

Q: And the pIC50 [8]?
A: The pIC50 was under 5.00.

Q: How did the pIC50 (Peregrin) turn out when `CCc1cc2cc(NS(=O)(=O)c3ccc(C#N)cc3)ccc2n(CC)c1=O` was run?
A: Its pIC50 is under 4.00.

Q: And the pIC50 [9]?
A: Its pIC50 is under 4.00.

Q: What about the pIC50 [10] of the same compound?
A: Its pIC50 is under 4.00.
